Experimental findings from patent publication US10766863B2, “Monocarboxylate transport modulators and uses thereof” (NIROGYONE THERAPEUTICS, INC., priority 2014, dated 2020) are described below.

Structures are written as SMILES. pEC50, pIC50: −log10 of the molar value. Bounds are passed on as bounds.

The first test concerns panel of solid and haemotological tumor cell lines. In words: MTS or MTT cell proliferation assay (cytotoxicity of MCT inhibition). In kind it is cell-based. The settings on record: Homo sapiens; MTS or MTT readout, 72 hours post-dosing; growth medium or 10 mM lactate medium (SiHa); cell line not given. Here is the method:
MTS or MTT Cell Proliferation Assay
The anti-proliferation effect of MCT inhibition was investigated across a panel of solid and haemotological tumor cell lines. Cells were routinely cultured in their appropriate growth medium. On day 1, between 5,000 -10,000 cells/well were plated into 96-well plates. 100 μL of phosphate buffered saline solution was added to the external wells to prevent media evaporation. Plates were incubated overnight at 37° C. in the presence of 5% CO2. On day 2, dry weight compound stocks were dissolved to a concentration of 20 mM in 100% DMSO. Compounds were further diluted in either growth medium or 10 mM lactate medium (For SiHa cell lines; Basic DMEM, 10% FBS, 10 mM Na-Lactate, 2.2 g/L NaHCO3, no glutamine) to generate a final dose range of 10 nM to 100 μM. Plates were then incubated at 37° C. in the presence of 5% CO2 for a further 72 hours post-dosing. On day 5, 20 μL of CellTiter 96 AQ MTS reagent or MTT was added to each well and the plate was returned to the incubator for 2-4 hours. In case of lactate medium, the medium was replaced by 100 μL of growth medium and 20 μL of CellTiter 96 AQ MTS reagent or replaced the media in cells with 100 uL of growth media containing 10% MTT solution,. MTS or MTT is bioreduced by NADPH or NADH produced by dehydrogenase enzymes in metabolically active cells into a coloured formazan product that is soluble in tissue culture medium. The amount of coloured formazan product is directly proportional to the number of living cells in culture. In the case of MTT, after 4 hr incubation, the media was removed from the plates and the plate was air-dried. Then, 100 uL of DMSO was added to each well, and incubated for 30 mins at room temperature with mild shaking. The absorbance of the plates was read on a Synergy H4 plate reader using […] or 540 nm measurement wavelength. Dose response curves were plotted and IC50 values were calculated using Prism. The IC50 value is equivalent to the concentration of compound that causes 50% inhibition of growth calculated from the compound treated signal to the vehicle treated signal.
By pEC50 is commonly meant the negative decadic logarithm of the EC50, by convention in mol/L. With `CC(C)Cn1cc(C(=O)O)c(=O)c2cc(F)c(N(C)Cc3ccccc3)cc21` [Example 1, 7-(benzyl(methyl)amino)-6-fluoro-1-isobutyl-4-oxo-1,4-dihydroquinoline-3-carboxylic acid], the negative-log EC50 (pEC50) is over 6.00.

With `CC(C)Cn1cc(C(=O)O)c(=O)c2cc(F)c(N(C)Cc3cccc(C(F)(F)F)c3)cc21` [Example 3, 6-fluoro-1-isobutyl-7-(methyl(3-(trifluoro-methyl)benzyl)amino)-4-oxo-1,4-dihydroquinoline-3-carboxylic acid], the pEC50 is over 6.00.

For the molecule `CC(C)Cn1cc(C(=O)O)c(=O)c2cc(F)c(N(C)Cc3ccc(Cl)cc3)cc21` [Example 4, 7-((4-chlorobenzyl) (methyl)amino)-6-fluoro-1-isobutyl-4-oxo-1,4-dihydro-quinoline-3-carboxylic acid], the pEC50 is over 6.00.

Take `CC(C)Cn1cc(C(=O)O)c(=O)c2cc(F)c(NCc3cccc(C(F)(F)F)c3)cc21` [Example 5, 6-fluoro-1-isobutyl-4-oxo-7-((3-(trifluoro-methyl)benzyl)amino)-1,4-dihydroquinoline-3-carboxylic acid]: the pEC50 is over 6.00.

With `CCn1cc(C(=O)O)c(=O)c2cc(F)c(N(C)Cc3ccccc3)cc21` [Example 6, 7-(benzyl(methyl)amino)-1-ethyl-6-fluoro-4-oxo-1,4-dihydroquinoline-3-carboxylic acid], the pEC50 is over 6.00.

For `CC(C)Cn1cc(C(=O)O)c(=O)c2cc(F)c(N(C)Cc3cccc(F)c3)cc21` [Example 7, 6-fluoro-7-((3-fluorobenzyl)(methyl)amino)-1-isobutyl-4-oxo-1,4-dihydro-quinoline-3-carboxylic acid], the pEC50 was over 6.00.

Consider `COc1cccc(CN(C)c2cc3c(cc2F)c(=O)c(C(=O)O)cn3CC(C)C)c1` [Example 8, 6-fluoro-1-isobutyl-7-((3-methoxybenzyl) (methyl)amino)-4-oxo-1,4-dihydroquinoline-3-carboxylic acid], for which the pEC50 is over 6.00.

With `CC(C)Cn1cc(C(=O)O)c(=O)c2cc(F)c(N(C)CC3CCN(C)CC3)cc21` [Example 9, 6-fluoro-1-isobutyl-7-(methyl((1-methyl-piperidin-4-yl)methyl)amino)-4-oxo-1,4-dihydroquinoline-3-carboxylic acid], the pEC50 was over 6.00.

For the molecule `CC(C)Cn1cc(C(=O)O)c(=O)c2cc(F)c(N(C)Cc3cccs3)cc21` [Example 10, 6-fluoro-1-isobutyl-7-(methyl(thiophen-2-ylmethyl)amino)-4-oxo-1,4-dihydro-quinoline-3-carboxylic acid], the pEC50 was over 6.00.

As to `CC(C)Cn1cc(C(=O)O)c(=O)c2cc(F)c(N(C)C(=O)c3ccccc3)cc21` [Example 11, 6-fluoro-1-isobutyl-7-(N-methylbenzamido)-4-oxo-1,4-dihydro-quinoline-3-carboxylic acid], the pEC50 is over 6.00.

As to `COc1cccc(CN(C)c2cc3c(cc2F)c(=O)c(C(=O)O)cn3Cc2ccccc2)c1` [Example 12, 1-benzy1-6-fluoro-7-((3-methoxybenzyl) (methyl)amino)-4-oxo-1,4-dihydroquinoline-3-carboxylic acid], the pEC50 was over 6.00.

Consider `Cc1cc(C)n(Cc2cc3c(cc2C(=O)N2CCC2)c(=O)c(C(=O)O)cn3CC(C)C)n1` [Example 15, 6-(azetidine-1-carbonyl)-7-((3,5-dimethyl-1H-pyrazol-1-yl)methyl)-1-isobutyl-4-oxo-1,4-dihydroquinoline-3-carboxylic acid], for which the negative logarithm of the EC50 (pEC50) was over 6.00.

For `CC(C)n1cc(C(=O)O)c(=O)c2cc(F)c(N(C)Cc3cccnc3)cc21` [Example 16, 6-fluoro-1-isopropyl-7-(methyl(pyridin-3-ylmethyl)amino)-4-oxo-1,4-dihydro-quinoline-3-carboxylic acid], the pEC50 is over 6.00.

With `CC(C)n1cc(C(=O)O)c(=O)c2cc(F)c(N(C)Cc3ccccc3)cc21` [Example 17, 7-(benzyl(methyl)amino)-6-fluoro-1-isopropyl-4-oxo-1,4-dihydro-quinoline-3-carboxylic acid], the pEC50 is over 6.00.

In the case of `CC(C)n1cc(C(=O)O)c(=O)c2cc(F)c(N(C)Cc3ccc(F)cc3)cc21` [Example 18, 6-fluoro-7-((4-fluorobenzyl)(methyl)amino)-1-isopropyl-4-oxo-1,4-dihydro-quinoline-3-carboxylic acid], the pEC50 was over 6.00.

Another test has as its system monocarboxylate transporters. In words: Lactate consumption assay in tumor cell lines (enzymatic L-Lactate Kit II). In kind it is cell-based. The settings on record: tumor cells in 10 mM lactate medium, compound 24 hours; concentration not given. Here is the method: Lactate Consumption Assay in Tumor Cell Lines.
Cells are maintained in their appropriate growth medium (DMEM medium with 4.5 g/L glucose, 4 mM L-glutamine supplemented with 10% FBS and P/S (growth medium). Cells (500,000 cells/well) were seeded in 24-well plate in growth medium for 6 hours. Replace the growth medium with 1 mL lactate medium (10 mM lactate in base DMEM without sodium pyruvate) for overnight. Cells were treated with compounds in 1 mL lactate medium for 24 hours. The culture medium was collected and centrifuged at 12,000 rpm for 5 minutes at 4° C. to get rid of any cell debris. An aliquot of 0.5 mL of the supernatant was loaded to a deproteinizing column, centrifuged at 12,000 rpm for 15 minutes at 4° C. The flow-through was collected and stored at -80° C. for future analysis. The amount of lactate in the supernatant was analyzed by enzymatic L-Lactate Kit II (Eton Bioscience Inc.). Briefly, 50 μL of 10 times diluted sample was mixed with 50 μL reaction mixture. Lactic acid is oxidized by enzyme reactions to yield color product, which can be measured in dual modes, either at 570 nm for colorimetric assay or with Ex 530-560/Em 570-595 nm fluorescence assay. And the color or fluorescence intensity is proportional to lactic acid concentrations, therefore the sample lactic acid concentration can be accurately calculated based on the lactic acid standards. […]
For `CC(C)Cn1cc(C(=O)O)c(=O)c2cc(F)c(N(C)Cc3ccccc3)cc21` [Example 1, 7-(benzyl(methyl)amino)-6-fluoro-1-isobutyl-4-oxo-1,4-dihydroquinoline-3-carboxylic acid], the “Lactate Consumption [Lactate Kit] (%)/[IC50]” value is 86%.

A further test has as its system monocarboxylate transporters. In words: Lactate uptake by 14C-lactate labeling assay. It is filed as cell-based. As to conditions: SiHa cells, compound one hour, 2 μM 14C-lactate for 12 minutes; read-out: Lactate Consumption (%)/[IC50][14C labeled]. Here is the method: Measuring Lactate Uptake by ^14 C-lactate Labeling Assay.
The inhibition of monocarboxylate transporters of the invention was determined using ^14CLactate, and the data are shown in Table II. Cells are maintained in their appropriate growth medium (DMEM medium with 4.5 g/L glucose, 4 mM L-glutamine supplemented with 10% FBS and P/S (growth medium). Cell culture surface of 24-well cell culture plates (BD Bioscience) were aseptically coated with 80 μL poly-lysine (1 mg/mL, Sigma) for 5 mins, then rinsed with sterile cell culture grade water, air-dried for at least 2 hours before introducing cells and medium. SiHa cells were seeded in poly-lysine coated 24-well plate at 500,000 cells/well in growth medium for 6 hours. Replace the growth medium with 1 mL lactate medium (10 mM lactate in base DMEM without sodium pyruvate) for overnight. Cells were rinsed with modified Kreb solution (containing 10 μM L-lactate, without glucose) and then treated with vehicle or increasing concentrations of compounds (0.1, 1, 10, 100 μM) at 37° C. in 1 mL modified Kreb solution (containing 10 μM L-lactate, 0.25% BSA) for one hour. […] After one hour agitation, the radioactivity was measured using Microbeta TriLux. CPM value was recorded and normalized to protein concentration.
With `CC(C)Cn1cc(C(=O)O)c(=O)c2cc(F)c(N(C)Cc3ccccc3)cc21` [Example 1, 7-(benzyl(methyl)amino)-6-fluoro-1-isobutyl-4-oxo-1,4-dihydroquinoline-3-carboxylic acid], the pIC50 is over 6.00.
